Columns and labels:
[1] = molecular target: Protein kinase C (PKC) (Homo sapiens) (UniProt O94806+P41743+P17252+P05129+Q05655+P05771+Q05513+Q02156+P24723+Q15139+Q04759); assay: Inhibition of protein kinase C (No inhibition); format: protein assay
[2] = molecular target: Phospholipase A2, major isoenzyme (Sus scrofa) (UniProt P00592); assay: Inhibitory concentration against phospholipase A2; No inhibition
[3] = molecular target: Cyclooxygenase (Homo sapiens) (UniProt P35354+P23219); assay: Inhibitory concentration against prostaglandin G/H synthase; No inhibition; format: protein assay
[4] = Inhibitory concentration against lipid peroxidase was determined; No inhibition
[5] = molecular target: T1, Polyunsaturated fatty acid 5-lipoxygenase (Homo sapiens) (UniProt P09917); assay: Inhibitory concentration against 5-lipoxygenase was determined; No inhibition
T1 sequence (whole entry): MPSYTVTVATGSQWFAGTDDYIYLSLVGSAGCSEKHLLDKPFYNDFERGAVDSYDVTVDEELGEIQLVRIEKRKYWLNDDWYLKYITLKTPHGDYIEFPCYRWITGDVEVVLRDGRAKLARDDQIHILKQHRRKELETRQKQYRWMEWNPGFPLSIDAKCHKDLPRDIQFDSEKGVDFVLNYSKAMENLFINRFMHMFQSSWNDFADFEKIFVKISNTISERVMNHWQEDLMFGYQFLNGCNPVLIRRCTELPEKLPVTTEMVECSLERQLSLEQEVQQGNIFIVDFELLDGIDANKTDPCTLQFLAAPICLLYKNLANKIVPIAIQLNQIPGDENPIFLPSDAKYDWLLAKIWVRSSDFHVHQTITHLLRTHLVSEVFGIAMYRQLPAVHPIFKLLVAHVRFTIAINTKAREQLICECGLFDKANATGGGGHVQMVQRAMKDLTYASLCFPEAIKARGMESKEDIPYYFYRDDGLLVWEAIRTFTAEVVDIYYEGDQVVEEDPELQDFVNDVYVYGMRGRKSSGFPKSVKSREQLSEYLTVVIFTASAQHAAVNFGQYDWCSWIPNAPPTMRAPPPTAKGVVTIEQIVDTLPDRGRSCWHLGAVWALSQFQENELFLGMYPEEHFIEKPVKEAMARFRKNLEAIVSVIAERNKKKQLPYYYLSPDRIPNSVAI

Chain of Phospholipase A2, major isoenzyme (Sus scrofa) (P00592 23-146 limits assumed): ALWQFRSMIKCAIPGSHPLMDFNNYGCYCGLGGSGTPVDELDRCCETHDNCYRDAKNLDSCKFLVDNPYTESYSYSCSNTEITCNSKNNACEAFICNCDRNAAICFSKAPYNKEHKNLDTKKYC

Activity [1] [µM]	Activity [2] [µM]	Activity [3] [µM]	Activity [4] [µM]	Activity [5] [µM]	Structure (SMILES)
> 300	> 300	> 300	–	–	O=C1CCN(c2ccccc2)N1
> 300	> 300	> 300	> 300	> 300	CCOC(=O)c1c2cccccc-2c2c(OCC)oc(=O)c(C#N)c12
